From PubChem BioAssay AID1963832 (Molecular Pharmacology Branch, DTP, NCI, 2024)

Tested on: 885724-159-R-J1-PDC complex spheroid viability
Experiment: Anticancer human tumor 885724-159-R-J1-PDC patient-derived pancreatic adenocarcinoma cell line growth inhibition [POLQ]
Settings: for IC50: curve of first compound; for viability, T/C: stronger effect = lower value
Summary of the method: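 Growth inhibition in 3D: complex spheroids (tumor PDC, HUVEC, MSC) treated with POLQ inhibitor combinations; where Cmax unknown, highest tested concentration 10 microM, except SN-38 at 1 microM.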

[1] = second compound 0.0316 µM, first compound 0.0316 µM
[2] = second compound 0.0316 µM, first compound 0.1 µM
[3] = second compound 0.0316 µM, first compound 0.316 µM
[4] = second compound 0.0316 µM, first compound 1 µM
[5] = second compound 0.0316 µM, first compound 3.16 µM
[6] = second compound 0.0316 µM, first compound 10 µM
[7] = second compound 0.1 µM, first compound 0.0316 µM
[8] = second compound 0.1 µM, first compound 0.1 µM
[9] = second compound 0.1 µM, first compound 0.316 µM
[10] = second compound 0.1 µM, first compound 1 µM
[11] = second compound 0.1 µM, first compound 3.16 µM
[12] = second compound 0.1 µM, first compound 10 µM
[13] = second compound 0.316 µM, first compound 0.0316 µM
[14] = second compound 0.316 µM, first compound 0.1 µM
[15] = second compound 0.316 µM, first compound 0.316 µM
[16] = second compound 0.316 µM, first compound 1 µM
[17] = second compound 0.316 µM, first compound 3.16 µM
[18] = second compound 0.316 µM, first compound 10 µM
[19] = second compound 1 µM, first compound 0.0316 µM
[20] = second compound 1 µM, first compound 0.1 µM
[21] = second compound 1 µM, first compound 0.316 µM
[22] = second compound 1 µM, first compound 1 µM
[23] = second compound 1 µM, first compound 3.16 µM
[24] = second compound 1 µM, first compound 10 µM
[25] = second compound 3.16 µM, first compound 0.0316 µM
[26] = second compound 3.16 µM, first compound 0.1 µM
[27] = second compound 3.16 µM, first compound 0.316 µM
[28] = second compound 3.16 µM, first compound 1 µM
[29] = second compound 3.16 µM, first compound 3.16 µM
[30] = second compound 3.16 µM, first compound 10 µM
[31] = second compound 10 µM, first compound 0.0316 µM
[32] = second compound 10 µM, first compound 0.1 µM
[33] = second compound 10 µM, first compound 0.316 µM
[34] = second compound 10 µM, first compound 1 µM
[35] = second compound 10 µM, first compound 3.16 µM
[36] = second compound 10 µM, first compound 10 µM
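Note: spheroids exposed to compounds for 7 days.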

CCc1cc2c(N3CCc4c(cc(Cn5ccnc5)cc4-c4cn(C)nc4C(F)(F)F)C3=O)ccnc2c(OC)n1 + COC1C(OC(N)=O)C(O)C(Oc2ccc3c(O)c(NC(=O)c4ccc(O)c(CC=C(C)C)c4)c(=O)oc3c2C)OC1(C)C
IC50 (second compound 0.0316 µM): > 10 µM | IC50 (second compound 0.1 µM): > 10 µM | IC50 (second compound 0.316 µM): > 10 µM | IC50 (second compound 1 µM): > 10 µM | IC50 (second compound 3.16 µM): > 10 µM | IC50 (second compound 10 µM): > 10 µM | viability, T/C [1]: 90.9% | viability, T/C [2]: 76.4% | viability, T/C [3]: 75.5% | viability, T/C [4]: 75% | viability, T/C [5]: 75% | viability, T/C [6]: 70.3% | viability, T/C [7]: 86.8% | viability, T/C [8]: 82.1% | viability, T/C [9]: 80.1% | viability, T/C [10]: 82.2% | viability, T/C [11]: 76.3% | viability, T/C [12]: 68.2% | viability, T/C [13]: 89.3% | viability, T/C [14]: 86.1% | viability, T/C [15]: 72.3% | viability, T/C [16]: 70.9% | viability, T/C [17]: 75.5% | viability, T/C [18]: 64.6% | viability, T/C [19]: 85.2% | viability, T/C [20]: 86% | viability, T/C [21]: 79.5% | viability, T/C [22]: 83.1% | viability, T/C [23]: 77% | viability, T/C [24]: 59.1% | viability, T/C [25]: 87.5% | viability, T/C [26]: 80.3% | viability, T/C [27]: 79.8% | viability, T/C [28]: 72.5% | viability, T/C [29]: 75.4% | viability, T/C [30]: 69.5% | viability, T/C [31]: 80.6% | viability, T/C [32]: 76.8% | viability, T/C [33]: 76.6% | viability, T/C [34]: 80.4% | viability, T/C [35]: 79.5% | viability, T/C [36]: 64.1%

COc1cc2cc(C(=O)CCC(=O)O)sc2cc1OC + COC1C(OC(N)=O)C(O)C(Oc2ccc3c(O)c(NC(=O)c4ccc(O)c(CC=C(C)C)c4)c(=O)oc3c2C)OC1(C)C
IC50 (second compound 0.0316 µM): > 10 µM | IC50 (second compound 0.1 µM): > 10 µM | IC50 (second compound 0.316 µM): > 10 µM | IC50 (second compound 1 µM): > 10 µM | IC50 (second compound 3.16 µM): > 10 µM | IC50 (second compound 10 µM): > 10 µM | viability, T/C [1]: 96.4% | viability, T/C [2]: 97.6% | viability, T/C [3]: 100% | viability, T/C [4]: 93.6% | viability, T/C [5]: 96.8% | viability, T/C [6]: 86.2% | viability, T/C [7]: 100% | viability, T/C [8]: 96.3% | viability, T/C [9]: 102% | viability, T/C [10]: 109% | viability, T/C [11]: 109% | viability, T/C [12]: 86.6% | viability, T/C [13]: 101% | viability, T/C [14]: 101% | viability, T/C [15]: 97.2% | viability, T/C [16]: 103% | viability, T/C [17]: 113% | viability, T/C [18]: 81% | viability, T/C [19]: 109% | viability, T/C [20]: 92.5% | viability, T/C [21]: 95.6% | viability, T/C [22]: 96% | viability, T/C [23]: 104% | viability, T/C [24]: 76.2% | viability, T/C [25]: 100% | viability, T/C [26]: 96.6% | viability, T/C [27]: 95.9% | viability, T/C [28]: 101% | viability, T/C [29]: 113% | viability, T/C [30]: 79.8% | viability, T/C [31]: 96.8% | viability, T/C [32]: 105% | viability, T/C [33]: 111% | viability, T/C [34]: 93.4% | viability, T/C [35]: 87.5% | viability, T/C [36]: 83.4%
